Results from publication PMC12221116, “Novel Quinazolinones Active against Multidrug‐Resistant Mycobacterium Tuberculosis: Synthesis, Antimicrobial Evaluation, and in Silico Exploration of Penicillin‐Binding Protein 1A as a Potential Target” (Chemmedchem, 2025).
Values after ≈ are worked out from the molar mass of the structure shown. Where two headings read alike, the source gives them in different places.

Key:
Test in all cases: microbe, parasite or virus in culture
Assay type in all cases: cell-based, Mycobacterium tuberculosis
[1] = system: Mtb TIAS; settings: for MIC: Mycobacterium tuberculosis, read-out: MIC Mtb TIAS
[2] = system: Mtb SORO; settings: for MIC: Mycobacterium tuberculosis, read-out: MIC Mtb SORO
[3] = system: Mtb IZAK; settings: for MIC: Mycobacterium tuberculosis, read-out: MIC Mtb IZAK
[4] = system: Mtb YAGY; settings: for MIC: Mycobacterium tuberculosis, read-out: MIC Mtb YAGY
[5] = system: Mtb MATI; settings: for MIC: Mycobacterium tuberculosis, read-out: MIC Mtb MATI
[6] = system: Mtb TURZ; settings: for MIC: Mycobacterium tuberculosis, read-out: MIC Mtb TURZ
[7] = system: Mtb TURZ; settings: for Susceptible/resistant Mtb TURZ: CLSI methodology; for MIC: Mycobacterium tuberculosis, read-out: MIC, susceptibility pattern Mtb TURZ
[8] = system: Mtb TIAS; settings: for Susceptible/resistant Mtb TIAS: CLSI methodology; for MIC: Mycobacterium tuberculosis, read-out: MIC, susceptibility pattern Mtb TIAS
[9] = system: Mtb YAGY; settings: for Susceptible/resistant Mtb YAGY: CLSI methodology; for MIC: Mycobacterium tuberculosis, read-out: MIC, susceptibility pattern Mtb YAGY
[10] = system: Mtb SORO; settings: for Susceptible/resistant Mtb SORO: CLSI methodology; for MIC: Mycobacterium tuberculosis, read-out: MIC, susceptibility pattern Mtb SORO
[11] = system: Mtb IZAK; settings: for Susceptible/resistant Mtb IZAK: CLSI methodology; for MIC: Mycobacterium tuberculosis, read-out: MIC, susceptibility pattern Mtb IZAK
[12] = system: Mtb MATI; settings: for Susceptible/resistant Mtb MATI: CLSI methodology; for MIC: Mycobacterium tuberculosis, read-out: MIC, susceptibility pattern Mtb MATI
[13] = drug-resistant clinical isolate
[14] = mycobacteria growth indicator tube (MGIT), concentration 100 mg/l

Row | Compound | MIC [1] [µg/mL] | MIC [2] [µg/mL] | MIC [3] [µg/mL] | MIC [4] [µg/mL] | MIC [5] [µg/mL] | MIC [6] [µg/mL] | Susceptible/resistant Mtb TURZ [7] | MIC [7] [µg/mL] | Susceptible/resistant Mtb TIAS [8] | MIC [8] [µg/mL] | Susceptible/resistant Mtb YAGY [9] | MIC [9] [µg/mL] | Susceptible/resistant Mtb SORO [10] | MIC [10] [µg/mL] | Susceptible/resistant Mtb IZAK [11] | MIC [11] [µg/mL] | Susceptible/resistant Mtb MATI [12] | MIC [12] [µg/mL] | other results
1 | Cc1nc2ccccc2c(=O)n1Cc1cccc(Cl)c1 [Compound 6] |  |  |  |  |  |  |  |  |  |  |  |  |  |  |  |  |  |  | MIC Mtb TIAS [1, 13]: 25 µg/mL (≈ 87.8 µM); MIC Mtb SORO [2, 13]: 25 µg/mL (≈ 87.8 µM); MIC Mtb IZAK [3, 13]: >100 µg/mL; MIC Mtb YAGY [4, 13]: 12.5 µg/mL (≈ 43.9 µM); MIC Mtb MATI [5, 13]: 50 µg/mL (≈ 176 µM); MIC Mtb TURZ [6, 13]: 25 µg/mL (≈ 87.8 µM)
2 | COc1ccc(Cn2c(C)nc3cc(Cl)ccc3c2=O)cc1 [Compound 17] | 12.5 (≈ 39.7 µM) | 12.5 (≈ 39.7 µM) | 12.5 (≈ 39.7 µM) | 12.5 (≈ 39.7 µM) | 12.5 (≈ 39.7 µM) | 12.5 (≈ 39.7 µM) |  |  |  |  |  |  |  |  |  |  |  |  | 
3 | Cc1nc2cc(Cl)ccc2c(=O)n1Cc1ccc(F)cc1 [Compound 19] | 12.5 (≈ 41.3 µM) | > 50 | > 50 | 12.5 (≈ 41.3 µM) | > 50 | 12.5 (≈ 41.3 µM) |  |  |  |  |  |  |  |  |  |  |  |  | 
4 | Cc1nc2cc(Cl)ccc2c(=O)n1Cc1cccc(Cl)c1 [Compound 21] | 12.5 (≈ 39.2 µM) | > 100 | > 100 | 12.5 (≈ 39.2 µM) | > 100 | 12.5 (≈ 39.2 µM) |  |  |  |  |  |  |  |  |  |  |  |  | 
5 | Cc1nc2cc(Cl)ccc2c(=O)n1Cc1ccc(Cl)c(Cl)c1 [Compound 24] | 6.25 (≈ 17.7 µM) | 100 (≈ 283 µM) | > 100 | 6.25 (≈ 17.7 µM) | > 100 | 6.25 (≈ 17.7 µM) |  |  |  |  |  |  |  |  |  |  |  |  | 
6 | Cc1nc2cc(Cl)ccc2c(=O)n1/N=C/c1ccc(O)c([N+](=O)[O-])c1 [Compound 25] | 25 (≈ 69.7 µM) | 12.5 (≈ 34.8 µM) | > 25 | 6.25 (≈ 17.4 µM) | 12.5 (≈ 34.8 µM) | 25 (≈ 69.7 µM) |  |  |  |  |  |  |  |  |  |  |  |  | 
7 | NNC(=O)c1ccncc1 [INH, isoniazid, reference compound] | > 100 | > 100 | > 100 | > 100 | > 100 | > 100 | R | > 8 | R | > 8 | R | 4 (≈ 29.2 µM) | R | 4 (≈ 29.2 µM) | R | 4 (≈ 29.2 µM) | R | > 8 | 
8 | CO[C@H]1/C=C/O[C@@]2(C)Oc3c(C)c(O)c4c(O)c(c(/C=N/N5CCN(C)CC5)c(O)c4c3C2=O)NC(=O)/C(C)=C\C=C\[C@H](C)[C@H](O)[C@@H](C)[C@@H](O)[C@@H](C)[C@H](OC(C)=O)[C@@H]1C [RIF, rifampicin] |  |  |  |  |  |  | R | > 8 | S | 0.125 (≈ 0.152 µM) | R | 8 (≈ 9.72 µM) | S | 0.125 (≈ 0.152 µM) | R | > 8 | R | > 8 | 
9 | NCC[C@H](O)C(=O)N[C@@H]1C[C@H](N)[C@@H](O[C@H]2O[C@H](CN)[C@@H](O)[C@H](O)[C@H]2O)[C@H](O)[C@H]1O[C@H]1O[C@H](CO)[C@@H](O)[C@H](N)[C@H]1O [amikacin] |  |  |  |  |  |  | S | 0.5 (≈ 0.854 µM) | S | 1 (≈ 1.71 µM) | R | > 64 | S | 1 (≈ 1.71 µM) |  |  |  |  | 
10 | CC(C)/N=c1\cc2n(-c3ccc(Cl)cc3)c3ccccc3nc-2cc1Nc1ccc(Cl)cc1 [clofazimine] |  |  |  |  |  |  |  |  |  |  |  |  | S | 0.25 (≈ 0.528 µM) |  |  |  |  | 
11 | CC[C@@H](CO)NCCN[C@@H](CC)CO [ethambutol] |  |  |  |  |  |  | R | 1 (≈ 4.89 µM) | R | 1 (≈ 4.89 µM) | R | 4 (≈ 19.6 µM) | R | 2 (≈ 9.79 µM) | S | 0.5 (≈ 2.45 µM) | S | 0.5 (≈ 2.45 µM) | 
12 | COc1c(N2C[C@@H]3CCCN[C@@H]3C2)c(F)cc2c(=O)c(C(=O)O)cn(C3CC3)c12 [moxifloxacin] |  |  |  |  |  |  | S | 0.25 (≈ 0.623 µM) | S | 0.25 (≈ 0.623 µM) | S | 0.25 (≈ 0.623 µM) | S | 0.25 (≈ 0.623 µM) |  |  |  |  | 
13 | NC(=O)c1cnccn1 [pyrazinamide] |  |  |  |  |  |  |  |  |  |  |  |  |  |  | R | > 16 | R | > 128 | Susceptible/resistant Mtb TURZ (MGIT) [7, 14]: S ^b); Susceptible/resistant Mtb TIAS (MGIT) [8, 14]: S ^b); Susceptible/resistant Mtb YAGY (MGIT) [9, 14]: R ^b); Susceptible/resistant Mtb SORO (MGIT) [10, 14]: S ^b)
14 | [H]/N=C(/N)N[C@H]1[C@H](O)[C@@H](O)[C@H](O[C@@H]2O[C@@H](C)[C@](O)(C=O)[C@H]2O[C@@H]2O[C@@H](CO)[C@H](O)[C@@H](O)[C@@H]2NC)[C@@H](N/C(N)=N\[H])[C@@H]1O [streptomycin] |  |  |  |  |  |  | R | 16 (≈ 27.5 µM) | R | 4 (≈ 6.88 µM) | R | > 16 | R | 4 (≈ 6.88 µM) | R | 4 (≈ 6.88 µM) | R | > 16 | 
